Data: patent US20250163104A1, “MACROCYCLIC IMMUNOMODULATORS” (priority 2021, published 2025)
Where a SMILES comes first, the peptide text is derived from it. Bridges are numbered along the chain shown (N, C = ends). [ ]: non-standard residue; d: D form. The star is where a group is joined. Bip = N[C@@H](Cc1ccc(-c2ccccc2)cc1)C(=O)O; Phe(3-Me) = Cc1cccc(C[C@H](N)C(=O)O)c1; Val(3-OH) = CC(C)(O)[C@H](N)C(=O)O; mTyr = N[C@@H](Cc1cccc(O)c1)C(=O)O; Benzoyl(4-F) = O=C(c1ccc(F)cc1)*; 4Pal = N[C@@H](Cc1ccncc1)C(=O)O; Cha = N[C@@H](CC1CCCCC1)C(=O)O; Carboxymethyl = O=C(O)C*; Orn = NCCC[C@H](N)C(=O)O; Dab = NCC[C@H](N)C(=O)O; Dap = NC[C@H](N)C(=O)O

Biological target: T1, human PD-1 / PD-L1-Ig binding on Jurkat cell line over-expressing human PD-1 (Jurkat-PD-1) (Homo sapiens, UniProt Q15116)
T1 construct: expressed in transfected cells; host or cells: Jurkat
Assay: Jurkat-PD-1 Cell Binding High-Content Screening Assay (CBA)
Assay type: cell-based
Settings: Jurkat-PD-1 cells, PE-labeled PD-L1-Ig 20 nM final; read-out: Jurkat HPD1_PDL1 IC50
Outline: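 Cell-bound PE-labeled PD-L1-Ig (20 nM final, 1 h) measured by high-content imaging after fixation and Hoechst 33342 counterstain. Compound was applied first for 2 h at 37° C. to Jurkat cells over-expressing human PD-1 in DMEM with 10% FCS.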

T1 sequence (Q15116 25-288): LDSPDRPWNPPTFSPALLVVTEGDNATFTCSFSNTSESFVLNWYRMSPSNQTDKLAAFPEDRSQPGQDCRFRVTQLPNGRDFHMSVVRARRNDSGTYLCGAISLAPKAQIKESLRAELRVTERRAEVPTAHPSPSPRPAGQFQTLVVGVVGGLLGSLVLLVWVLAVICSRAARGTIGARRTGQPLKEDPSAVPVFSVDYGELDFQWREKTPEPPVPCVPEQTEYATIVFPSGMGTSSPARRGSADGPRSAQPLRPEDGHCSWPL

| IC50 | SMILES |
| --- | --- |
| 16.7 nM | CCNC(=O)[C@H](CCN)NC(=O)[C@@H]1CSCC(=O)N[C@@H](CN)C(=O)N[C@@H](Cc2ccc(OCC(=O)O)cc2)C(=O)N[C@@H](CC(=O)O)C(=O)N[C@@H](Cc2cccc(O)c2)C(=O)N[C@@H](C(C)C)C(=O)N[C@@H](Cc2ccc(-c3ccccc3)cc2)C(=O)N[C@@H](Cc2ccc(O)cc2)C(=O)N[C@@H](CCCN)C(=O)N[C@H](CC(C)C)C(=O)N[C@@H](CCN)C(=O)N[C@@H](CC2CCCCC2)C(=O)N[C@@H](C(C)C)C(=O)N[C@@H](CCCN)C(=O)N1 [Compound 2046] ({CH2CO}-[Dap]Y(Carboxymethyl)D[mTyr]V[Bip]Y[Orn][dL][Dab][Cha]V[Orn]C[Dab]-NHEt; thioether N-14) |
| 2.8 nM | CCNC(=O)[C@H](CCN)NC(=O)[C@@H]1CSCC(=O)N[C@@H](CN)C(=O)N[C@@H](Cc2ccc(OCC(=O)O)cc2)C(=O)N[C@@H](CC(=O)O)C(=O)N[C@@H](Cc2cccc(O)c2)C(=O)N[C@@H](Cc2ccc(O)cc2)C(=O)N[C@@H](Cc2ccc(-c3ccccc3)cc2)C(=O)N[C@@H](Cc2ccc(O)cc2)C(=O)N[C@@H](CCCN)C(=O)N[C@H](CC(C)C)C(=O)N[C@@H](CCN)C(=O)N[C@@H](CC2CCCCC2)C(=O)N[C@@H](C(C)C)C(=O)N[C@@H](CCCN)C(=O)N1 [Compound 2047] ({CH2CO}-[Dap]Y(Carboxymethyl)D[mTyr]Y[Bip]Y[Orn][dL][Dab][Cha]V[Orn]C[Dab]-NHEt; thioether N-14) |
| 40.2 nM | Cc1cccc(C[C@@H]2NC(=O)[C@H](CC(=O)O)NC(=O)[C@H](Cc3ccc(OCC(=O)O)cc3)NC(=O)[C@H](CNC(=O)c3ccc(F)cc3)NC(=O)CSC[C@@H](C(N)=O)NC(=O)[C@H]([C@@H](C)O)NC(=O)[C@H](C(C)C)NC(=O)[C@H](CC3CCCCC3)NC(=O)[C@H](CCN)NC(=O)[C@@H](CC(C)C)NC(=O)[C@H](CCCN)NC(=O)[C@H](Cc3ccc(OCC(=O)O)cc3)NC(=O)[C@H](Cc3ccc(-c4ccccc4)cc3)NC(=O)[C@H](Cc3ccc(O)cc3)NC2=O)c1 [Compound 2048] ({CH2CO}-[Dap](Benzoyl(4-F))Y(Carboxymethyl)D[Phe(3-Me)]Y[Bip]Y(Carboxymethyl)[Orn][dL][Dab][Cha]VTC-NH2; thioether N-14) |
| 79.3 nM | Cc1cccc(C[C@@H]2NC(=O)[C@H](CC(=O)O)NC(=O)[C@H](Cc3ccc(OCC(=O)O)cc3)NC(=O)[C@H](CCNC(=O)c3ccc(F)cc3)NC(=O)CSC[C@@H](C(N)=O)NC(=O)[C@H]([C@@H](C)O)NC(=O)[C@H](C(C)C)NC(=O)[C@H](CC3CCCCC3)NC(=O)[C@H](CCN)NC(=O)[C@@H](CC(C)C)NC(=O)[C@H](CCCN)NC(=O)[C@H](Cc3ccc(OCC(=O)O)cc3)NC(=O)[C@H](Cc3ccc(-c4ccccc4)cc3)NC(=O)[C@H](Cc3ccc(O)cc3)NC2=O)c1 [Compound 2049] ({CH2CO}-[Dab](Benzoyl(4-F))Y(Carboxymethyl)D[Phe(3-Me)]Y[Bip]Y(Carboxymethyl)[Orn][dL][Dab][Cha]VTC-NH2; thioether N-14) |
| 121 nM | Cc1cccc(C[C@@H]2NC(=O)[C@H](CC(=O)O)NC(=O)[C@H](Cc3ccc(OCC(=O)O)cc3)NC(=O)[C@H](CCCNC(=N)N)NC(=O)CSC[C@@H](C(N)=O)NC(=O)[C@H]([C@@H](C)O)NC(=O)[C@H](C(C)C)NC(=O)[C@H](CC3CCCCC3)NC(=O)[C@H](CCN)NC(=O)[C@@H](CC(C)C)NC(=O)[C@H](CCCNC(=O)c3ccc(F)cc3)NC(=O)[C@H](Cc3ccc(OCC(=O)O)cc3)NC(=O)[C@H](Cc3ccc(-c4ccccc4)cc3)NC(=O)[C@H](Cc3ccc(O)cc3)NC2=O)c1 [Compound 2050] ({CH2CO}-RY(Carboxymethyl)D[Phe(3-Me)]Y[Bip]Y(Carboxymethyl)[Orn](Benzoyl(4-F))[dL][Dab][Cha]VTC-NH2; thioether N-14) |
| 48.5 nM | CC(=O)NCCC[C@@H]1NC(=O)[C@H](Cc2ccc(OCC(=O)O)cc2)NC(=O)[C@H](Cc2ccc(-c3ccccc3)cc2)NC(=O)[C@H](Cc2ccc(O)cc2)NC(=O)[C@H](Cc2cccc(C)c2)NC(=O)[C@H](CC(=O)O)NC(=O)[C@H](Cc2ccc(OCC(=O)O)cc2)NC(=O)[C@H](CCCNC(=N)N)NC(=O)CSC[C@@H](C(N)=O)NC(=O)[C@H]([C@@H](C)O)NC(=O)[C@H](C(C)C)NC(=O)[C@H](CC2CCCCC2)NC(=O)[C@H](CCN)NC(=O)[C@@H](CC(C)C)NC1=O [Compound 2051] ({CH2CO}-RY(Carboxymethyl)D[Phe(3-Me)]Y[Bip]Y(Carboxymethyl)[Orn](Ac)[dL][Dab][Cha]VTC-NH2; thioether N-14) |
| 145 nM | Cc1cccc(C[C@@H]2NC(=O)[C@H](CC(=O)O)NC(=O)[C@H](Cc3ccc(OCC(=O)O)cc3)NC(=O)[C@H](CCCNC(=N)N)NC(=O)CSC[C@@H](C(N)=O)NC(=O)[C@H]([C@@H](C)O)NC(=O)[C@H](C(C)C)NC(=O)[C@H](CC3CCCCC3)NC(=O)[C@H](CCN)NC(=O)[C@@H](CC(C)C)NC(=O)[C@H](CCCN)NC(=O)[C@H](CCCNC(=O)c3ccc(F)cc3)NC(=O)[C@H](Cc3ccc(-c4ccccc4)cc3)NC(=O)[C@H](Cc3ccc(O)cc3)NC2=O)c1 [Compound 2052] ({CH2CO}-RY(Carboxymethyl)D[Phe(3-Me)]Y[Bip][Orn](Benzoyl(4-F))[Orn][dL][Dab][Cha]VTC-NH2; thioether N-14) |
| 39.4 nM | Cc1cccc(C[C@@H]2NC(=O)[C@H](CC(=O)O)NC(=O)[C@H](Cc3ccc(OCC(=O)O)cc3)NC(=O)[C@H](CCCNC(=N)N)NC(=O)CSC[C@@H](C(N)=O)NC(=O)[C@H](CCCNC(=O)c3ccc(F)cc3)NC(=O)[C@H](C(C)C)NC(=O)[C@H](CC3CCCCC3)NC(=O)[C@H](CCN)NC(=O)[C@@H](CC(C)C)NC(=O)[C@H](CCCN)NC(=O)[C@H](Cc3ccc(OCC(=O)O)cc3)NC(=O)[C@H](Cc3ccc(-c4ccccc4)cc3)NC(=O)[C@H](Cc3ccc(O)cc3)NC2=O)c1 [Compound 2053] ({CH2CO}-RY(Carboxymethyl)D[Phe(3-Me)]Y[Bip]Y(Carboxymethyl)[Orn][dL][Dab][Cha]V[Orn](Benzoyl(4-F))C-NH2; thioether N-14) |
| 12.4 nM | CC(=O)NCCC[C@@H]1NC(=O)[C@H](C(C)C)NC(=O)[C@H](CC2CCCCC2)NC(=O)[C@H](CCN)NC(=O)[C@@H](CC(C)C)NC(=O)[C@H](CCCN)NC(=O)[C@H](Cc2ccc(OCC(=O)O)cc2)NC(=O)[C@H](Cc2ccc(-c3ccccc3)cc2)NC(=O)[C@H](Cc2ccc(O)cc2)NC(=O)[C@H](Cc2cccc(C)c2)NC(=O)[C@H](CC(=O)O)NC(=O)[C@H](Cc2ccc(OCC(=O)O)cc2)NC(=O)[C@H](CCCNC(=N)N)NC(=O)CSC[C@@H](C(N)=O)NC1=O [Compound 2054] ({CH2CO}-RY(Carboxymethyl)D[Phe(3-Me)]Y[Bip]Y(Carboxymethyl)[Orn][dL][Dab][Cha]V[Orn](Ac)C-NH2; thioether N-14) |
| 97.3 nM | Cc1cccc(C[C@@H]2NC(=O)[C@H](CC(=O)O)NC(=O)[C@H](Cc3ccc(OCC(=O)O)cc3)NC(=O)[C@H](CCCNC(=N)N)NC(=O)CSC[C@@H](C(N)=O)NC(=O)[C@H]([C@@H](C)O)NC(=O)[C@H](C(C)C)NC(=O)[C@H](CC3CCCCC3)NC(=O)[C@H](CCN)NC(=O)[C@@H](CC(C)C)NC(=O)[C@H](CCCN)NC(=O)[C@H](CCCN)NC(=O)[C@H](Cc3ccc(-c4ccccc4)cc3)NC(=O)[C@H](Cc3ccc(O)cc3)NC2=O)c1 [Compound 2055] ({CH2CO}-RY(Carboxymethyl)D[Phe(3-Me)]Y[Bip][Orn][Orn][dL][Dab][Cha]VTC-NH2; thioether N-14) |
| 27.5 nM | Cc1cccc(C[C@@H]2NC(=O)[C@H](CC(=O)O)NC(=O)[C@H](Cc3ccc(OCC(=O)O)cc3)NC(=O)[C@H](CCCNC(=N)N)NC(=O)CSC[C@@H](C(N)=O)NC(=O)[C@H]([C@@H](C)O)NC(=O)[C@H](C(C)C)NC(=O)[C@H](CC3CCCCC3)NC(=O)[C@H](CCN)NC(=O)[C@@H](CC(C)C)NC(=O)[C@H](CCCN)NC(=O)[C@H](Cc3ccc(OCC(=O)O)cc3)NC(=O)[C@H](Cc3ccc(-c4ccccc4)cc3)NC(=O)[C@H](Cc3ccc(O)cc3)NC2=O)c1 [Compound 2056] ({CH2CO}-RY(Carboxymethyl)D[Phe(3-Me)]Y[Bip]Y(Carboxymethyl)[Orn][dL][Dab][Cha]VTC-NH2; thioether N-14) |
| 3.6 nM | Cc1cccc(C[C@@H]2NC(=O)[C@H](CC(=O)O)NC(=O)[C@H](Cc3ccc(OCC(=O)O)cc3)NC(=O)[C@H](Cc3ccncc3)NC(=O)CSC[C@@H](C(=O)N[C@@H](CCN)C(N)=O)NC(=O)[C@H](CO)NC(=O)[C@H](C(C)(C)O)NC(=O)[C@H](CC3CCCCC3)NC(=O)[C@H](CCN)NC(=O)[C@@H](CC(C)C)NC(=O)[C@H](CCCN)NC(=O)[C@H](Cc3ccc(OCC(=O)O)cc3)NC(=O)[C@H](Cc3ccc(-c4ccccc4)cc3)NC(=O)[C@H](Cc3ccc(OCC(=O)O)cc3)NC2=O)c1 [Compound 2057] ({CH2CO}-[4Pal]Y(Carboxymethyl)D[Phe(3-Me)]Y(Carboxymethyl)[Bip]Y(Carboxymethyl)[Orn][dL][Dab][Cha][Val(3-OH)]SC[Dab]-NH2; thioether N-14) |
| 25.2 nM | Cc1cccc(C[C@@H]2NC(=O)[C@H](CC(=O)O)NC(=O)[C@H](Cc3ccc(OCC(=O)O)cc3)NC(=O)[C@H](C(C)(C)O)NC(=O)CSC[C@@H](C(=O)N[C@@H](CCN)C(N)=O)NC(=O)[C@H](CO)NC(=O)[C@H](C(C)(C)O)NC(=O)[C@H](CC3CCCCC3)NC(=O)[C@H](CCN)NC(=O)[C@@H](CC(C)C)NC(=O)[C@H](CCCN)NC(=O)[C@H](Cc3ccc(OCC(=O)O)cc3)NC(=O)[C@H](Cc3ccc(-c4ccccc4)cc3)NC(=O)[C@H](Cc3ccc(OCC(=O)O)cc3)NC2=O)c1 [Compound 2058] ({CH2CO}-[Val(3-OH)]Y(Carboxymethyl)D[Phe(3-Me)]Y(Carboxymethyl)[Bip]Y(Carboxymethyl)[Orn][dL][Dab][Cha][Val(3-OH)]SC[Dab]-NH2; thioether N-14) |
